One data set relates to human hepatocytes. Briefly: Metabolic stability with human hepatocytes. As to conditions: 1 μM test compound, well stirred model. Type of data set: in vitro ADME. On the procedure: Assay for the Determination of Metabolic Stability with Human Hepatocytes
The metabolic degradation of the test compound is assayed in a human hepatocyte suspension. Human hepatocytes (typically cryopreserved) are incubated in an appropriate buffer system (e.g. Dulbecco's modified eagle medium plus 3.5 μg glucagon/500 mL, 2.5 mg insulin/500 mL and 3.75 mg/500 mL hydrocortison) containing 5% species serum. Following a (typically) […] preincubation in an incubator (37° C., 10% CO2), 5 μl of test compound solution (80 μM; from […] stock solution in DMSO diluted 1:25 with medium) are added into 395 μl hepatocyte suspension (cell density in the range 0.25-5*10^6 cells/mL, typically 1*10^6 cells/mL; final concentration of test compound 1 μM, final DMSO concentration 0.05%). The cells are incubated for six hours (incubator, orbital shaker) and samples (25 μl) are taken at 0, 0.5, 1, 2, 4 and 6 hours. Samples are transferred into acetonitrile and pelleted by centrifugation (5 min) The supernatant is transferred to a new 96-deepwell plate, evaporated under nitrogen and resuspended. The decline of parent compound is analyzed by LC-MS/MS.
The intrinsic clearance CL_[…] is calculated as follows: CL_[…]=Dose/AUC=(C0/CD)/(AUD+clast/k)*1,000/60
(C0: initial concentration in the incubation [μM], CD: cell density of vital cells [10^6 cells/mL], AUD: area under the data [μM*h], clast: concentration of last data point [μM], k: slope of the regression line for parent decline [h^−1])
The calculated in vitro hepatic intrinsic clearance Qh can be scaled up to the intrinsic in vivo hepatic clearance and used to predict hepatic in vivo blood clearance (CL) by the use of a liver model (well stirred model): CL_[…]_INVIVO [ml/min/kg]=(CL_[…] [μL/min/10^6 cells]*hepatocellularity [10^6 cells/g liver]*liver factor [g/kg bodyweight])/1,000 CL [ml/min/kg]=CL_[…]_INVIVO [ml/min/kg]*hepatic blood flow [ml/min/kg]/(CL_[…]_INVIVO [ml/min/kg]+hepatic blood flow [ml/min/kg]) Qh [%]=CL [ml/min/kg]/hepatic blood flow [ml/min/kg])
(Hepatocellularity, human: 120*10^6 cells/g liver; liver factor, human: 25.7 g/kg bodyweight; blood flow, human: 21 ml/(min*kg))
The calculated in-vitro hepatic intrinsic clearance values of selected compounds in the metabolic stability assay with human hepatocytes described above are listed in Table 15.

The nature of data set [1]: Drug transport across human Caco-2 cells. The format is in vitro ADME. The settings on record: apparent permeability coefficient, Caco-2 monolayers, pH 7.2, 37° C.; for Papp A→B at 10 µM: apical-to-basal (absorptive), read-out: PEAB; for Papp B→A at 10 µM: basal-to-apical (secretory), read-out: PEBA. The source says: Assay for Determination of Drug Transport Across Human Caco-2 Cells
The assay provides information on the potential of a compound to pass the cell membrane, on the extent of oral absorption as well as on whether the compound is actively transported by uptake and/or efflux transporters. For the measurement of permeability across polarized, confluent human cancer colon carcinoma cells 2 (Caco-2) cell monolayers grown on permeable filter supports are used as the in vitro absorption model.
Apparent permeability coefficients (PE) of the compounds across the Caco-2 monolayers are measured (pH 7.2, 37° C.) in apical-to-basal (AB) (absorptive) and basal-to-apical (BA) (secretory) transport direction. AB permeability (PEAB) represents drug absorption from the intestine into the blood and BA permeability (PEBA) drug secretion from the blood back into the intestine via both passive permeability as well as active transport mechanisms mediated by efflux and uptake transporters that are expressed on the Caco-2 cells. The compounds are assigned to permeability/absorption classes by comparison of the AB permeabilities with the AB permeabilities of reference compounds with known in vitro permeability and oral absorption in the human. Identical or similar permeabilities in both transport directions indicate passive permeation, vectorial permeability points to additional active transport mechanisms. […] Active transport is concentration-dependently saturable.
Caco-2 cells (1-2*10^5 cells/cm^2 area) are seeded on filter inserts (Costar transwell polycarbonate or PET filters, 0.4 μm pore size) and cultured (DMEM) for 10 to 25 days. Compounds are dissolved in appropriate solvent (like DMSO, […] stock solutions). Stock solutions are diluted with HTP-4 buffer (128.13 mM NaCl, 5.36 mM KCl, 1 mM MgSO4, 1.8 mM CaCl2, 4.17 mM NaHCO3, 1.19 mM Na2HPO4x7H2O, 0.41 mM NaH2PO4xH2O, 15 mM HEPES, 20 mM glucose, pH 7.2) to prepare the transport solutions (typically 10 μM compound, final DMSO<=0.5%). The transport solution (TL) is applied to the apical or basolateral donor side for measuring A-B or B-A permeability (3 filter replicates), respectively. The receiver side contains HTP-4 buffer supplemented with 2% BSA. Samples are collected at the start and end of experiment from the donor and at various time intervals for up to 2 hours also from the receiver side for concentration measurement by LC-MS/MS or scintillation counting. Sampled receiver volumes are replaced with fresh receiver solution.
The apparent permeability coefficients (PEAB and PEBA) of selected compounds in the Caco-2 drug transport assay described above are listed in Table 16.
Background: Caco-2 monolayers are a common model of the intestinal barrier.

Data set [2] has as its target Human neutrophil elastase (Homo sapiens (Human), UniProt P08246). Briefly: Human Neutrophil Elastase Assay. Type of data set: biochemical. The settings on record: substrate MeOSuc-Ala-Ala-Pro-Val-AMC 250 μM, pH 7.5.
For data set [3], the target named is neutrophil elastase in zymosan-stimulated human plasma (Homo sapiens (Human), UniProt P08246). Put plainly: Neutrophil elastase inhibitory activity in human plasma. The format is biochemical. As to conditions: human plasma from zymosan-stimulated blood.
Description: Assay for the Determination of Neutrophil Elastase Inhibitory Activity in Human Plasma
Citrated blood from human healthy donors is mixed with zymosan suspension and incubated at room temperature. This leads to the stimulation of neutrophils and the release of neutrophil elastase into the plasma. The stimulated blood is centrifuged to generate the neutrophil elastase enriched plasma.
Various concentrations of the neutrophil elastase inhibitor are incubated with plasma. […] A dose response curve is generated to calculate the EC50 of the inhibitor.
Data set [4] in a line: Metabolic stability with human liver microsomes. Type of data set: in vitro ADME. The settings on record: pH 7.6; pooled human liver microsomes, 1 μM test compound, 37° C.; read-out: t1/2 INVITRO. On the technique in general: Liver microsomes are a subcellular fraction often used to study metabolism.

A value given as a limit tells only on which side of the number the result lay.

Chain of Human neutrophil elastase (P08246 30-247): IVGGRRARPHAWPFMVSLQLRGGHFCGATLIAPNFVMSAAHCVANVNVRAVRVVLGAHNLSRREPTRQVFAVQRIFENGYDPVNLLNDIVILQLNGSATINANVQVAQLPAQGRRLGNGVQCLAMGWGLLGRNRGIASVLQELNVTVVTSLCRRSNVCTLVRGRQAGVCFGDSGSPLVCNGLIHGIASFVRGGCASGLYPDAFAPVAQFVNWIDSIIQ
Chain of neutrophil elastase in zymosan-stimulated human plasma (P08246 30-247): as above

`CN1C(=O)N(c2cccc(C(F)(F)F)c2)C2=C(C(=O)CCC2)C1c1ccc(C#N)cc1-c1ccn(C)c(=O)c1` (single isomer, unassigned) [Example 20.b, 4-[3-Methyl-2,5-dioxo-1-(3-trifluoromethyl-phenyl)-1,2,3,4,5,6,7,8-octahydro-quinazolin-4-yl]-3-(1-methyl-2-oxo-1,2-dihydro-pyridin-4-yl)-benzonitrile] registered a Qh in the data set with human hepatocytes of 5%. Besides, in data set [1], the Papp A→B at 10 µM came to 6.2 ×10⁻⁶ cm/s and the Papp B→A at 10 µM came to 95 ×10⁻⁶ cm/s.
Regarding `CNC(=O)c1cc(C#N)ccc1[C@@H]1C2=C(CCC2=O)N(c2cccc(C(F)(F)F)c2)C(=O)N1C` [Example 2.1], the concentration for half-maximal inhibition (IC50) in data set [2] amounted to 1.8 nM. In data set [3], this molecule showed an EC50 of 2 nM. Besides, in data set [4], the half-life at 1 μM is above 130 min. The Qh with human hepatocytes was found to be 9%. Also, in data set [1], the Papp A→B at 10 µM is 14 ×10⁻⁶ cm/s and the Papp B→A at 10 µM amounted to 78 ×10⁻⁶ cm/s.
`CN1C(=O)N(c2cccc(C(F)(F)F)c2)C2=C(C(=O)CC2)C1c1ccc(C#N)cc1-c1cnn(C)c1` (stereo not drawn) [Example 11.2] returned a half-maximal inhibitory concentration (IC50) in data set [2] below 1 nM. This molecule also had a concentration giving a half-maximal response (EC50) in data set [3] of 2 nM. Moreover, the half-life at 1 μM in data set [4] worked out at 120 min. This molecule registered a Qh in the data set with human hepatocytes of 24%. For the same molecule, in data set [1], the Papp A→B at 10 µM stood at 61 ×10⁻⁶ cm/s and the Papp B→A at 10 µM was found to be 76 ×10⁻⁶ cm/s.
In data set [2], `Cc1nnc(-c2cc(C#N)ccc2C2C3=C(CCC3=O)N(c3cccc(C(F)(F)F)c3)C(=O)N2C)o1` (stereo not drawn) [Example 13.1, 4-[3-Methyl-2,5-dioxo-1-(3-trifluoromethyl-phenyl)-2,3,4,5,6,7-hexahydro-1H-cyclopentapyrimidin-4-yl]-3-(5-methyl-[1,3,4]oxadiazol-2-yl)-benzonitrile] displayed an IC50 of 2.2 nM. The molecule further gave an EC50 in data set [3] of 2 nM. Besides, the half-life at 1 μM in data set [4] was above 130 min. Further, the Qh in the data set on human hepatocytes is 16%. Besides, in data set [1], the Papp A→B at 10 µM came to 49 ×10⁻⁶ cm/s and the Papp B→A at 10 µM was 72 ×10⁻⁶ cm/s.
`CN1C(=O)N(c2cccc(C(F)(F)F)c2)C2=C(C(=O)CCC2)C1c1ccc(C#N)cc1-c1cncs1` (stereo not drawn) [Example 15.3]: the half-maximal inhibitory concentration (IC50) in data set [2] is 1.9 nM.
In turn, `CN1C(=O)N(c2cccc(C(F)(F)F)c2)C2=C(C(=O)CCC2)C1c1ccc(C#N)cc1-c1cn[nH]c1` (stereo not drawn) [Example 15.4] displayed an IC50 in data set [2] of 1.6 nM.
Turning to `CN1C(=O)N(c2cccc(C(F)(F)F)c2)C2=C(C(=O)CCC2)C1c1ccc(C#N)cc1-c1ccco1` (stereo not drawn) [Example 15.5], 5.7 nM corresponded to half-maximal inhibition in data set [2] (IC50).
As to `CN1C(=O)N(c2cccc(C(F)(F)F)c2)C2=C(C(=O)CCC2)C1c1ccc(C#N)cc1C1=CCN(C(=O)OC(C)(C)C)C1` (stereo not drawn) [Example 15.6], the half-maximal inhibitory concentration (IC50) in data set [2] was found to be 10.7 nM.
`CN1C(=O)N(c2cccc(C(F)(F)F)c2)C2=C(C(=O)CCC2)C1c1ccc(C#N)cc1-c1ccn(C)c(=O)c1` (stereo not drawn) [Example 15.8, 4-[3-Methyl-2,5-dioxo-1-(3-trifluoromethyl-phenyl)-1,2,3,4,5,6,7,8-octahydro-quinazolin-4-yl]-3-(1-methyl-2-oxo-1,2-dihydro-pyridin-4-yl)-benzonitrile] yielded an IC50 in data set [2] of 1.2 nM. This molecule came in with an EC50 in data set [3] of 4 nM. Further, in data set [4], the half-life at 1 μM was above 130 min. In data set [1], the Papp A→B at 10 µM was determined as 3.5 ×10⁻⁶ cm/s and the Papp B→A at 10 µM amounted to 57 ×10⁻⁶ cm/s.
For the molecule `CN1C(=O)N(c2cccc(C(F)(F)F)c2)C2=C(C(=O)CCC2)C1c1ccc(C#N)cc1C1=CCOCC1` (stereo not drawn) [Example 15.9], in data set [2], half-maximal inhibition (IC50) was put at 1.3 nM.
On the same count and under the same terms, the value for `CN1C(=O)N(c2cccc(C(F)(F)F)c2)C2=C(C(=O)CCC2)C1c1ccc(C#N)cc1C1=COCC1` (stereo not drawn) [Example 15.10] was 1.5 nM; that for `CN1C(=O)N(c2cccc(C(F)(F)F)c2)C2=C(C(=O)CCC2)C1c1ccc(C#N)cc1C1=CCNCC1` (stereo not drawn) [Example 16, 4-[3-Methyl-2,5-dioxo-1-(3-trifluoromethyl-phenyl)-1,2,3,4,5,6,7,8-octahydro-quinazolin-4-yl]-3-(1,2,3,6-tetrahydro-pyridin-4-yl)-benzonitrile] was below 1 nM; that for `CN1C(=O)N(c2ccnc(C(F)(F)F)c2)C2=C(C(=O)CC2)C1c1ccc(C#N)cc1-c1ccoc1` (stereo not drawn) [Example 17, 3-Furan-3-yl-4-[3-methyl-2,5-dioxo-1-(2-trifluoromethyl-pyridin-4-yl)-2,3,4,5,6,7-hexahydro-1H-cyclopentapyrimidin-4-yl]-benzonitrile] was 11.2 nM.
In data set [2], `CN1C(=O)N(c2ccnc(C(F)(F)F)c2)C2=C(C(=O)CC2)C1c1ccc(C#N)cc1-c1ccn(C)n1` (stereo not drawn) [Example 17.1] displayed an IC50 of 50.2 nM.
The same measure, in the same setting: the value for `CN1C(=O)N(c2ccnc(C(F)(F)F)c2)C2=C(C(=O)CC2)C1c1ccc(C#N)cc1C1=CCN(C(=O)OC(C)(C)C)CC1` (stereo not drawn) [Example 17.2, 4-{5-Cyano-2-[3-methyl-2,5-dioxo-1-(2-trifluoromethyl-pyridin-4-yl)-2,3,4,5,6,7-hexahydro-1H-cyclopentapyrimidin-4-yl]-phenyl}-3,6-dihydro-2H-pyridine-1-carboxylic acid tert-butyl ester] was 4.6 nM; that for `CN1C(=O)N(c2ccnc(C(F)(F)F)c2)C2=C(C(=O)CC2)C1c1ccc(C#N)cc1-c1ccn(C)c(=O)c1` (stereo not drawn) [Example 17.3] was 10.6 nM; that for `CN1C(=O)N(c2ccnc(C(F)(F)F)c2)C2=C(C(=O)CC2)C1c1ccc(C#N)cc1C1=CCNCC1` (stereo not drawn) [Example 18, 4-[3-Methyl-2,5-dioxo-1-(2-trifluoromethyl-pyridin-4-yl)-2,3,4,5,6,7-hexahydro-1H-cyclopentapyrimidin-4-yl]-3-(1,2,3,6-tetrahydro-pyridin-4-yl)-benzonitrile] was 1.7 nM.
In data set [2], `N#Cc1ccc(C2NC(=O)N(c3cccc(C(F)(F)F)c3)C3=C2C(=O)CC3)c(-c2ccoc2)c1` (stereo not drawn) [Example 19, 4-[2,5-Dioxo-1-(3-trifluoromethyl-phenyl)-2,3,4,5,6,7-hexahydro-1H-cyclopentapyrimidin-4-yl]-3-furan-3-yl-benzonitrile] showed an IC50 of 10.1 nM.

By IC50 is commonly meant the concentration that inhibits the measured activity by half. High values mean a need for much substance, low ones inhibition by little substance. The EC50 is the concentration that produces a half-maximal response. A lower EC50 goes with greater potency.

Values taken from patent US9458113B2 (Boehringer Ingelheim International GmbH, priority 2014, dated 2016).
